Test results reported in patent US9908877B2, “Imidazo[1,5-a]pyridinium ion fluorophores, and methods of making and using the same” (Indiana University Research and Technology Corporation, priority 2013, dated 2018).

Assays:
Type in all cases: physicochemical
[1] = Fluorescence emission in a series of organic solvents; conditions: 30 μM, excited at 360 nm
Experimental: Compound 6 was placed in the series of organic solvents at a concentration of 30 μM, excited with radiation at 360 nm, and monitored for fluorescence emission. The organic solvent, intensity of fluorescence emission (ET), and maximum emission wavelength in nm and cm^−1, are set forth below in Table 2.

[2] = Fluorescence response to pH in buffered water; conditions: buffered water, 298 K, pH from 7.5 to 2.5
Experimental: Stock solutions of each compound (having a concentration of from 1-5 mM) were prepared by dissolving the corresponding salts of the compounds in methanol or 1V, N-dimethylformamide, and then diluting the same with acetonitrile or buffered water having a pH of from 2.5 to 7.5 derived from 0.2 M […] and 0.1 M citric acid, to achieve a sample solution having a compound concentration of 30.0 μM.
The emission spectrum for each sample was obtained. The results are illustrated by the plot in FIG. 2A.
The emission spectrum for each sample was obtained. […] The results are illustrated in the plot of FIG. 2B.
The fluorescence emission spectrum of Compound 8 in water having a pH of 2.5 was also obtained and is illustrated by the curved line with a peak at 360 nm in FIG. 5B.
Compounds 10, 11, and 12 were each individually added, at a concentration of 30 μM, to water having a pH=7.5 and the emission spectra of each were obtained. […] As the pH was decreased from 7.5 to 2.5 in 0.5 pH unit increments, fluorescence emission at 600 nm remained relatively nonexistent and the intensity of the fluorescence emission at 400 nm increased in correlation to the decrease in pH. FIG. 8A illustrates the emission properties of Compound 12.

[3] = Ultraviolet-visible light spectrum (maximum absorbance wavelength)
Experimental: Method for Obtaining an Ultraviolet-Visible Light Spectrum
Ultraviolet-visible (UV-Vis) Light spectra are obtained and recorded on an Agilent 8453 spectrophotometer using ChemStation software (Agilent Technologies, Inc., Santa Clara, Calif.).
(§1) The compounds were analyzed at 298° K according to the Method for Obtaining Ultraviolet-Visible Light Spectrum (30 μM acetonitrile) to obtain the maximum absorbance wavelength (λabs,max), Method for Obtaining Fluorescence Emission Spectrum (30 μM acetonitrile) to obtain the maximum emission wavelength (λem,max) and Method for Determining Quantum Yield (ΦF) (30 μM acetonitrile) at the concentration, in the solvent, and with the counter ion indicated in Table 1. The compounds included hydrogen at each R group that is not otherwise specified.
(§2) Compounds 6, 7, 9, 11-14 and 21 were analyzed according to: the Method for Obtaining Ultraviolet-Visible Light Spectrum to obtain the maximum absorbance wavelength (λabs,max), the Method for Obtaining Fluorescence Emission Spectrum to obtain the maximum emission wavelength (λem,max), and the Method for Determining Quantum Yield (ΦF) in the solvent and with the counter ion indicated in Table 3.

[4] = pKa from fluorescence intensity versus pH; conditions: non-linear regression of fluorescence intensity versus pH, buffered water pH 2.5 to 7.5
Experimental: Method for Determining pKa
A pKa value is determined by plotting fluorescence intensity (Imax) at emission maxima against pH and fitting the result to the non-linear expression in equation (1) (i.e., eq.(1)). In eq (1), a and b are the molar coefficient of the acid (HA) and base (A^−) form, respectively, and c is the combined overall concentration of the acid and base form. i.e., c=[HA]+[A^−].

[5] = Fluorescence emission spectrum (maximum emission wavelength)
Experimental: Method for Obtaining a Fluorescence Emission Spectrum
Fluorescence emission spectra are obtained and recorded on a QM-4-CW Spectrofluorometer using FeliX32 software (Photon Technology International, Inc., Birmingham, N.J.).
as §1, §2

[6] = Dimethylsulfoxide (ET(30) 45.1)

maximum emission Wavelength ([1]; Acetonitrile (ET(30) 45.6)): 559 nm
maximum emission wavenumber ([1]; Acetonitrile (ET(30) 45.6)): 17889.09 cm⁻¹
maximum emission Wavelength ([1]; Benzene (ET(30) 34.3)): 567 nm
maximum emission wavenumber ([1]; Benzene (ET(30) 34.3)): 17636.68 cm⁻¹
maximum emission Wavelength ([1]; Chloroform (ET(30) 39.1)): 533 nm
maximum emission wavenumber ([1]; Chloroform (ET(30) 39.1)): 18761.73 cm⁻¹
maximum emission Wavelength ([1]; Dichloromethane (ET(30) 40.7)): 535 nm
maximum emission wavenumber ([1]; Dichloromethane (ET(30) 40.7)): 18691.59 cm⁻¹
maximum emission Wavelength [1, 6]: 567 nm
maximum emission wavenumber [1, 6]: 17636.68 cm⁻¹
maximum emission Wavelength ([1]; Hexane (ET(30) 31)): 561 nm
maximum emission wavenumber ([1]; Hexane (ET(30) 31)): 17825.31 cm⁻¹
maximum emission Wavelength ([1]; Tetrahydrofuran (ET(30) 37.4)): 541 nm
maximum emission wavenumber ([1]; Tetrahydrofuran (ET(30) 37.4)): 18484.29 cm⁻¹
maximum emission Wavelength ([1]; Toluene (ET(30) 33.9)): 568 nm
maximum emission wavenumber ([1]; Toluene (ET(30) 33.9)): 17605.63 cm⁻¹
maximum emission Wavelength ([1]; Water (ET(30) 63.1)): 576 nm
maximum emission wavenumber ([1]; Water (ET(30) 63.1)): 17361.11 cm⁻¹
λem,max of the emission that decreases as pH decreases [2]: 580 nm
λem,max of the emission that increases as pH decreases [2]: 400 nm
λabs, max Abs ([3]; H2O (pH not given), 30 μM): 350 nm
λabs, max Abs ([3]; H2O pH = 2.5, 30 μM): 350 nm
λabs, max Abs ([3]; MeCN + 13.8 uL TFA, 30 μM): 350 nm
λabs, max Abs ([3]; MeCN, 30 μM): 350 nm
pKa [4]: 5
λem, max Em ([5]; H2O (pH not given), 30 μM): 580 nm
λem, max Em ([5]; H2O pH = 2.5, 30 μM): 400 nm
λem, max Em ([5]; MeCN + 13.8 uL TFA, 30 μM): 405 nm
λem, max Em ([5]; MeCN, 30 μM): 565 nm
SMILES: CCN(CC)c1ccc(-c2c3cccc[n+]3cn2-c2ccc(OC)cc2)cc1.[Cl-] [Compound 6, 1-(4-(diethylamino)phenyl)-2-(4-methoxyphenyl)-2H-imidazo[1,5-a]pyridin-4-ium chloride]
